Laboratory results from article PMC8800119 (The Journal of Biological Chemistry, 2022).

Target: T1, glutaminase C (GAC) (Homo sapiens, UniProt O94925, Y466W)
T1 sequence (O94925 72-550 Y466W): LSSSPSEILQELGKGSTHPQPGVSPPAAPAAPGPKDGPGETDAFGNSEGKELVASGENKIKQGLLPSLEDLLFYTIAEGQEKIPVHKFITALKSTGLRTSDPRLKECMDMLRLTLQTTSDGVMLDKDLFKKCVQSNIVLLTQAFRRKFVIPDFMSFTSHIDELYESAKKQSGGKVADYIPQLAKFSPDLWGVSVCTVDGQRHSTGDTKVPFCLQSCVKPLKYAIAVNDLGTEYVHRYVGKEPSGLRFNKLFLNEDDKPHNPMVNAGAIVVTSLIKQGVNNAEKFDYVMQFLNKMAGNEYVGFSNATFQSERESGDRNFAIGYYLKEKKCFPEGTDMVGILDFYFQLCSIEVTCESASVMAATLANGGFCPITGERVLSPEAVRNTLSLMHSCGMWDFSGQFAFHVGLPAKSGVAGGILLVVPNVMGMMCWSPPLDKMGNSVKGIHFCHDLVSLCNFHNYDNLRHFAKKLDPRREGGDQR
Test: Trp466 fluorescence titration of phosphate at […] glutamine
Format: binding

Kd: 8.5 ± 1.9 mM
Structure (SMILES): O=P(O)(O)O [inorganic phosphate]
